Results reported in ChEMBL document CHEMBL1145744, “Anti-HIV agents. Part 55: 3'R,4'R-Di-(O)-(-)-camphanoyl-2',2'-dimethyldihydropyrano[2,3-f]chromone (DCP), a novel anti-HIV agent” (Bioorg Med Chem Lett, 2003).

Key:
[1] = In vitro therapeutic index was measured from IC50 to EC50 towards HIV-1 replication in cell growth in H9 lymphocytes; assay type: functional
H9 = experiment: Concentration that inhibits HIV-1 replication in cell growth in H9 lymphocytes; assay type: functional, cell-based; conditions: Homo sapiens

CC1(C)Oc2ccc3ccc(=O)oc3c2[C@@H](OC(=O)C23CCC(C)(C(=O)O2)C3(C)C)[C@H]1OC(=O)C12CCC(C)(C(=O)O1)C2(C)C (stereo partly specified)
TI [1]: 136719

CC1(C)Oc2ccc3c(=O)ccoc3c2[C@@H](OC(=O)C23CCC(C)(C(=O)O2)C3(C)C)[C@H]1OC(=O)C12CCC(C)(C(=O)O1)C2(C)C (stereo partly specified)
EC50 (H9): 0.000678 µM | IC50 (H9): 9.83 µM | TI [1]: 14500

Cc1cn([C@H]2C[C@H](N=[N+]=[N-])[C@@H](CO)O2)c(=O)[nH]c1=O [ZIDOVUDINE]
IC50 (H9): 500 µM | TI [1]: 11200
